The values that follow come from patent publication US20130045988A1, “COMBINATION THERAPY” (SHIRE AG, priority 2011, published 2013).

As a reminder, the IC50 is the concentration that inhibits the measured activity by half. What is called inhibition is the change of the read-out against control, counted positive when it falls. A lower inhibition goes with a response near the control.

The subject of test [1] is cholinergic neurons innervating pig gastric circular muscle. Put plainly: EFS-induced acetylcholine release (total radioactivity/tritium outflow) from pig gastric circular muscle strips.
The subject of test [2] is pig gastric circular muscle strips. Nature of the test: EFS-induced submaximal cholinergic contractions of gastric circular muscle strips.
The test system of test [3] is pig colon descendens circular muscle. Nature of the test: EFS-induced submaximal cholinergic contractions of colon circular muscle strips. To be noted: for influence on the facilitating effect of prucalopride on cholinergic neurotransmission: PDE inhibitor before prucalopride, data not shown; for effect on EFS-induced cholinergic contractions: cumulative half log unit increasing concentrations, IBMX effect range 1-30 μM. How it is done:
Young male pigs (10-12 weeks, 15-25 kg-breed Line 36) were obtained from […], Belgium. On the morning of the experiment, pigs were anaesthetized with an intramuscular injection of 5 ml Zoletil 100 (containing 50 mg/ml tiletamine and 50 mg/ml zolazepam; Virbac Belgium S.A., Belgium). […] The aerated (5% CO2/95% O2) Krebs-Henseleit solution in the organ baths (see example 11) systematically contained 4 μM of the noradrenergic neuron blocker guanethidine and 0.3 mM of the NO synthase inhibitor Nω-nitro-L-arginine methyl ester hydrochloride (L-NAME) to avoid noradrenergic and […] responses respectively. After 60 min of stabilization with refreshing of the Krebs-Henseleit solution every 15 min, strips were contracted with the muscarinic receptor agonist carbachol (3 μM). This procedure was repeated with a 20-min washout period in between. […] NK3, 0.3 μM SB222200) were added and incubated for 30 min before the first electrical stimulation. […] Strips were then stimulated for 1 hour (12 stimulations) with 5 min interval at supramaximal voltage (35 V) (10 s trains; 0.25 ms pulse duration; frequency of 4 Hz). […] The protocols as described in examples 12 and 13 then started. […] Changes in isometric tension were measured using MLT 050/D force transducers (ADInstruments, United Kingdom) and recorded on a PowerLab/8sp data recording system (ADInstruments, United Kingdom) with Chart v5.5.6 software. The obtained data were analysed as follows: […] Results are expressed as means±S.E.M., n referring to tissues from different animals except when otherwise indicated. Statistical analysis was performed by use of Graphpad Prism […]<0.05 was considered statistically significant. When adding PDE inhibitors cumulatively, the last contraction in the presence of each concentration was compared to the reference by repeated measures ANOVA followed by a Bonferroni corrected t-test. […] A cumulative concentration-response curve for the different PDE inhibitors was obtained by adding them in half log unit increasing concentrations, starting after 5 reproducible contractions at V50% had been obtained and registering the responses to 6 trains (30 min) after adding each concentration. Parallel to the cumulative concentration-response curve of rolipram, an isolated concentration-response curve was obtained by adding one single concentration per tissue in 3 animals. […] The solvents DMSO and ethanol were tested separately by adding them cumulatively in the matching dilutions as for the cumulative concentration series of the corresponding PDE inhibitor.

In test [4] the test system is PDE. As to conditions: Beavo and Reifsnyder, 1990; read-out: IC50 range; cited from earlier work.
Setting [5] is: prucalopride 0.03, 0.1 or 0.3 μM.

“And” between values parts separate entries of the source, which are not always exact repeats. Equal values may be shown once. “Also recorded” adds a separate entry of the source. Read-outs that look alike come from different tables or passages of the source.

For `CCCCCC[C@@H]([C@@H](C)O)n1cnc2c(N)ncnc21` (racemic) [EHNA], the “S2/S1 ratio of EFS-induced total radioactivity outflow” value (from here on “S2/S1 ratio”) in test [1] (10 μM EHNA alone) worked out at 0.51±0.05. Moreover, the “influence on basal tritium outflow” value in test [1] (PDE inhibitor alone, 10 μM) is recorded as “did not influence basal”. In addition, the “influence on submaximal cholinergic contractions” value in test [2] (1-30 μM) is “did not significantly influence the submaximal cholinergic contractions”. For the same compound, the “influence on the facilitating effect of prucalopride on cholinergic neurotransmission” value in test [3] is listed as “did not influence the facilitating effect of prucalopride on cholinergic neurotransmission”.
For `Cn1cc(C(=O)OCC2CCN(CCNS(C)(=O)=O)CC2)c2ccccc21` [GR113808], the “S2, EFS-induced outflow of total radioactivity above baseline” value in test [1] (1 nM GR113808 added 21 min before 0.3 μM prucalopride) was determined as 43860 ± 4122 dpm g^−1 tissue; in test [1] (10 nM GR113808 added 21 min before 0.3 μM prucalopride) it was 39273 ± 9533 dpm g^−1 tissue; in test [1] (100 nM GR113808 added 21 min before 0.3 μM prucalopride), 47590 ± 8293 dpm g^−1 tissue. Further, the results for the “S2/S1 ratio” value in test [1] (1 nM GR113808 followed by 0.3 μM prucalopride), in test [1] (10 nM GR113808 followed by 0.3 μM prucalopride) and in test [1] (100 nM GR113808 followed by 0.3 μM prucalopride) were 1.05 ± 0.08, 0.86 ± 0.04 and 0.74 ± 0.05, respectively. Moreover, the “influence on basal tritium outflow” value in test [1] (GR113808 1, 10, 100 nM) is reported as “did not influence basal tritium outflow”. Moreover, the “influence on the facilitating effect of prucalopride on EFS-induced acetylcholine release” value in test [1] (GR113808 1, 10, 100 nM versus 0.3 μM prucalopride) is “concentration-dependently antagonized the facilitating effect of 0.3 μM prucalopride”. In addition, the “S1, EFS-induced outflow of total radioactivity above baseline” value in test [1] (first stimulation S1, before drugs, tissues given 1 nM GR113808 then 0.3 μM prucalopride) stood at 42314 ± 3744 dpm g^−1 tissue; in test [1] (first stimulation S1, before drugs, tissues given 10 nM GR113808 then 0.3 μM prucalopride) it was 45180 ± 10235 dpm g^−1 tissue; in test [1] (first stimulation S1, before drugs, tissues given 100 nM GR113808 then 0.3 μM prucalopride), 49850 ± 8210 dpm g^−1 tissue. Further, in test [2] (GR113808 1, 10 and 100 nM), the “influence per se on EFS-induced contractions” value was “did not influence the EFS-induced contractions”. Further, in test [2] (GR113808 1, 10 and 100 nM versus 0.3 μM prucalopride), the “influence on the facilitating effect of prucalopride on EFS-induced contractions” value is given as “concentration-dependently inhibited the facilitating effect of 0.3 μM prucalopride”.
Regarding `CC(C)Cn1c(=O)n(C)c(=O)c2[nH]cnc21` [IBMX, 3-isobutyl-1-methyl-xanthine], in test [1] (IBMX 10 μM alone), the “influence on EFS-induced tritium outflow” value is given as “nor did it influence EFS-induced tritium outflow; also recorded: did not significantly influence EFS-induced tritium outflow”. In addition, the “influence on basal tritium outflow” value in test [1] (PDE inhibitor alone, 10 μM) is recorded as “did not influence basal”. For the same compound, in test [2] (3 μM IBMX, piglets), the “EFS-induced contractions decreased maximally to % of response before” value amounted to 84±2%. Besides, the “effect on EFS-induced cholinergic contractions” value in test [2] (30 μM IBMX) was “nearly abolished”; in test [3] it was “concentration-dependently inhibited EFS-induced cholinergic contractions”. The “effect on amplitude of the EFS-induced cholinergic contractions” value in test [2] (IBMX, half log unit ascending concentrations) is recorded as “concentration-dependent reduction of the amplitude of the EFS-induced cholinergic contractions from 3 μM onwards”. Further, in test [4], the IC50 is 2 to 50 µM.
Regarding `CN1[C@@H]2CC[C@H]1C[C@@H](OC(=O)C(CO)c1ccccc1)C2` (some centres unmarked) [atropine], the “effect on EFS-induced contractions at V50% C” value in test [2] was “abolished”.
With `CN(C(=O)CCCOc1ccc2[nH]c(=O)ccc2c1)C1CCCCC1` [cilostamide], the “influence on basal tritium outflow” value in test [1] (PDE inhibitor alone, 1 μM) was “None of these PDE-inhibitors alone influenced basal tritium outflow”. In addition, in test [2] (1 μM cilostamide alone), the “contraction at the 10th stimulation train, % of the response before” value was 59±13%. Further, the activity at 3 µM in test [2] (Sus scrofa, 3 μM cilostamide, maximal depression, read-out: EFS-induced contraction, reduction to % of response before PDE-inhibitor) was determined as 68 ± 11%. In addition, in test [2] (cilostamide 0.01-10 μM), the “influence on submaximal cholinergic contractions” value is on record as “reduced the contractions from 0.1 μM onwards”. In test [3], the “potency versus IBMX in inhibiting EFS-induced cholinergic contractions” value was “about 100 times” and the “effect on EFS-induced cholinergic contractions” value is recorded as “concentration-dependently inhibited EFS-induced cholinergic contractions”. In addition, testing at 0.03 µM in test [3] (Sus scrofa, 0.03 μM cilostamide) gave an inhibition of 75%.
With `COCCCN1CCC(NC(=O)c2cc(Cl)c(N)c3c2OCC3)CC1` [prucalopride, 4-amino-5-chloro-2,3-di-hydro-N-[r-(3-methoxypropyl)-4-piperidinyl]-7-benzo-furan-carboxamide], in test [1], the “S1, EFS-induced outflow of total radioactivity above baseline” value is 68328 ± 11006 dpm g^−1 tissue and 91698 ± 24563 dpm g^−1 tissue and 61343 ± 11445 dpm g^−1 tissue and 50543 ± 3791 dpm g^−1 tissue. The “S2, EFS-induced outflow of total radioactivity above baseline” value in test [1] (0.03 μM prucalopride added 15 min before S2) is 62398 ± 8272 dpm g^−1 tissue; in test [1] (0.1 μM prucalopride added 15 min before S2) it was 91877 ± 21668 dpm g^−1 tissue; in test [1] (0.3 μM prucalopride added 15 min before S2), 61498 ± 9813 dpm g^−1 tissue and 52591 ± 2950 dpm g^−1 tissue. The “influence on EFS-induced tritium outflow” value in test [1] (0.03 μM prucalopride alone) is “enhanced EFS-induced tritium outflow”. For the same compound, the “influence on basal tritium outflow” value in test [1] (prucalopride 0.03, 0.1 and 0.3 μM) is reported as “did not influence the basal outflow”. Also, the results for the “electrically induced contractions, % of mean of 5 contractions before” value in test [2] (0.01 μM prucalopride alone), in test [2] (0.03 μM prucalopride alone) and in test [2] (0.1 μM prucalopride alone) were 162±11%, 171±15% and 206±10%, respectively. The “effect on amplitude of the EFS-induced contractions” value in test [2] (setting [5]) is “progressively enhanced the amplitude of the EFS-induced contractions”. In addition, the “influence on basal tone of the strips” value in test [2] (setting [5]) was “did not influence the basal tone of the strips”. Moreover, the “effect on EFS-induced cholinergic submaximal contractions” value in test [3] (1 μM prucalopride) is reported as “systematically enhanced EFS-induced cholinergic submaximal contractions”.
In the case of `O=C(Nc1c(Cl)cncc1Cl)c1ccc(OC(F)F)c(OCC2CC2)c1` [roflumilast], in test [1] (0.3 μM roflumilast alone, 36 min before S2), the “S2/S1 ratio” value worked out at 0.85±0.02.
Consider `COc1ccc(C2CNC(=O)C2)cc1OC1CCCC1` (centres unmarked) [rolipram], for which, in test [1] (PDE inhibitor alone, 1 μM), the “influence on basal tritium outflow” value was “None of these PDE-inhibitors alone influenced basal tritium outflow”. Besides, the “mean contractile response to the 10th stimulation train, % of response before administration” value in test [2] (1 μM rolipram alone, before adding prucalopride, three tissue groups) was 114±8% and 115±8% and 122±9%. Further, the “individual contractile response to the 10th stimulation, % of response before administration” value in test [2] (1 μM rolipram alone, single tissues of the group later given 0.03 μM prucalopride) is 96% and 111% and 137% and 155% and 93% and 102% and 101% and 128%. For the same compound, in test [2] (1-30 μM), the “influence on submaximal cholinergic contractions” value is reported as “did not significantly influence the submaximal cholinergic contractions”. Further, the “effect on EFS-induced contractions” value is “did not enhanced the EFS-induced contractions” in test [3] (3 μM rolipram, before prucalopride is added); “significant increase of the EFS-induced contractions” in test [3] (0.1 and 0.3 μM rolipram).
For `NC1=N[C@H](O)[C@H]2[C@H]3O[C@]4(O)O[C@@H]([C@@H](O)[C@@]2(N1)[C@@H]4O)[C@]3(O)CO` [tetrodotoxin], in test [2], the “effect on EFS-induced contractions at V50% C” value is reported as “abolished”.
As to `CC(C)n1c(=O)c(C(=O)N[C@H]2C[C@H]3CC[C@@H](C2)N3C[C@@H](O)CN(C)S(C)(=O)=O)cc2ccccc21` [velusetrag], the “S2/S1 ratio” value in test [1] is 0.7±0.03.
`CCOC(=O)C1=C[C@]2(CC)CCCN3CCc4c(n1c1ccccc41)[C@@H]32` [vinpocetine]: in test [1] (PDE inhibitor alone, 10 μM), the “influence on basal tritium outflow” value is “None of these PDE-inhibitors alone influenced basal tritium outflow”. In addition, the “influence on submaximal cholinergic contractions” value in test [2] (vinpocetine 0.01-10 μM) was “did not significantly influence the submaximal cholinergic contractions”. Besides, in test [3], the “influence on the facilitating effect of prucalopride on cholinergic neurotransmission” value was “did not influence the facilitating effect of prucalopride on cholinergic neurotransmission”.
